Consider five molecules from patent publication US20240053326A1, “TESTING COLON CANCER DRUGS FOR IMMUNOMODULATORY EFFECTS” (BROWN UNIVERSITY, priority 2022, published 2024).

Each structure is given as a SMILES string.

This experiment relates to HCT-116, HT-29, and KM12C colon cancer cell lines. Nature of the experiment: Cytokinome (cytokine, chemokine, growth factor) profiling of cell culture supernatant after small-molecule treatment, Luminex 200. The format is cell-based, human. The settings on record: for decreases in VEGF: 48 h treatment at IC-10 to IC-90, slope of linear regression, count of drug/cell line groups (HCT-116, HT-29, KM12C) with analyte among top five most down-regulated. Here is the method: We designed a high-throughput custom multiplex cytokine, chemokine, and growth factor profiling panel based on both pro- and anti-inflammatory markers, as well as cytokines and chemokines involved in the recruitment and activation of immune cells such as natural killer (NK) and T cells. Cell lines were treated with the drug panel and cell culture supernatants were analyzed using Luminex 200 technology (FIG. 2). Cell lines were treated at differing concentrations (IC-10, IC-30, IC-50, IC-70, and IC-90) to determine dose-response effects for each small-molecule. It is important to emphasize that the panel was designed to analyze soluble factors that are secreted or shed by tumor cells post-treatment with drug.
Cells were plated at 3.5×10^4 cells in a 48 well plate (Thermo Fisher Scientific, Waltham, MA, USA) in complete medium and incubated at 37° C. with 5% CO2. At 24 hours after plating, almost all the tumor cells were adherent to the bottom of the flask and the complete medium was replaced with drug-containing medium. Subsequently, the culture supernatants were collected after 48 hours of incubation and were frozen at −80° C. until the measurement of cytokines was performed. The day of analysis, samples were thawed and centrifuged to remove cellular debris.
An R&D systems Human Premixed Multi-Analyte Kit (R&D Systems, Inc., Minneapolis, MN) was run on a Luminex 200 Instrument (LX200-XPON-RUO, Luminex Corporation, Austin, TX) according to the manufacturer's instructions. Cell culture supernatant levels of TNF-alpha, IL-6, IL-8/CXCL8, Ferritin, IFN-beta, IL-10, CCL2/JE/MCP-1, VEGF, CXCL13/BLC/BCA-1, IFN-gamma, CCL20/MIP-3 alpha, CCL3/MIP-1 alpha, CCL22/MDC, CCL4/MIP-1 beta, IL-4, IL-17/IL-17a, TRAIL R2/TNFRSF10B, GM-CSF, CXCL5/ENA-78, CXCL9/MIG, G-CSF, CXCL11/I-TAC, Granzyme B, CCL5/RANTES, Prolactin, IFN-alpha, CXCL14/BRAK, IL-12/IL-23 p40, CXCL10/IP-10/CRG2, CCL7/MCP-3/MARC, IL-7, CCL8/MCP-2, TRANCE/TNFSF11/RANK L, IL-15, TRAIL R3/TNFRSF10C, CCL11/Eotaxin, IL-18/IL-1F4, TRAIL/TNFSF10, IL-21, and C-Reactive Protein/CRP were measured.
A quantitative analysis with 6 standards and a minimum of 50 counts per bead region was used with the Luminex to generate analyte values reported as picograms/milliliter (pg/mL). Cytokine concentrations less than the lower limit of detection for each particular cytokine were recoded as zero. Cytokines without detectable expression levels were removed from further analysis of each cell line. Each drug was tested at different inhibitory concentrations (IC-10, IC-30, IC-50, IC-70, and IC-90), and these varying concentrations were used to measure a dose-response effect on cytokine expression. Cytokine dose-response effect was modeled by simple linear regression for each drug. The slopes of the linear regressions were compared. Data analysis and visualization were generated using R (R Development Core Team, 2020).

Setting [1] is: 48 h, IC-10 to IC-90, regression slope, count of drug/cell line groups, top five most down-regulated.
The mark [2] stands for this setting: 48 h, IC-10 to IC-90, regression slope, count of drug/cell line groups, top five most up-regulated.

For the molecule `O=C(Nc1cnn2ccc(N3CCC[C@@H]3c3cc(F)ccc3F)nc12)N1CC[C@H](O)C1` [Larotrectinib], the “decreases in VEGF” value is 3 out of 3. Further, under setting [1], the “decreases in CCL3/MIP-1 alpha” value is listed as 2 out of 3, the “decreases in CXCL9/MIG” value is recorded as 3 out of 3 and the “decreases in IL-8/CXCL8” value was 2 out of 3. Moreover, under setting [2], the “increases in CCL5/RANTES” value is listed as 2 out of 3, the “increases in IL-18/IL-1F4” value is given as 2 out of 3 and the “increases in Prolactin” value was 2 out of 3.

`C[C@@H](Oc1cc(-c2cnn(C3CCNCC3)c2)cnc1N)c1c(Cl)ccc(F)c1Cl` [Crizotinib]: the “decreases in VEGF” value is given as 3 out of 3. Moreover, under setting [1], the “decreases in CXCL9/MIG” value is reported as 2 out of 3 and the “decreases in CXCL13/BLC/BCA-1” value was 2 out of 3. Under setting [2], the “increases in CXCL14/BRAK” value is listed as 2 out of 3, the “increases in IL-8/CXCL8” value is listed as 2 out of 3 and the “increases in Prolactin” value is recorded as 2 out of 3.

With `COc1ccc(CN2C3CC2CN(c2ccc(-c4cc(OCC(C)(C)O)cn5ncc(C#N)c45)cn2)C3)cn1` [Selpercatinib], the “decreases in VEGF” value was 3 out of 3. In addition, under setting [1], the “decreases in CCL3/MIP-1 alpha” value is on record as 2 out of 3 and the “decreases in CXCL14/BRAK” value is reported as 2 out of 3. In addition, under setting [2], the “increases in CXCL5/ENA-78” value was 3 out of 3, the “increases in IL-8/CXCL8” value is 2 out of 3 and the “increases in Prolactin” value was 2 out of 3.

As to `CNC(=O)c1cc(Oc2ccc(NC(=O)Nc3ccc(Cl)c(C(F)(F)F)c3)c(F)c2)ccn1` [Regorafenib], the “decreases in VEGF” value is recorded as 3 out of 3. For the same molecule, under setting [1], the “decreases in CCL3/MIP-1 alpha” value is listed as 2 out of 3, the “decreases in CXCL5/ENA-78” value is 2 out of 3, the “decreases in CXCL9/MIG” value is listed as 3 out of 3 and the “decreases in IL-8/CXCL8” value is reported as 3 out of 3. Under setting [2], the “increases in CXCL14/BRAK” value is recorded as 2 out of 3 and the “increases in Prolactin” value is on record as 2 out of 3.

For the molecule `Cn1cc(C2=C(c3coc4ccc(F)cc34)C(=O)NC2=O)c2cc3c(cc21)OCO3` [9-ING-41], the “decreases in VEGF” value is given as 3 out of 3. Besides, under setting [1], the “decreases in CCL3/MIP-1 alpha” value is 2 out of 3 and the “decreases in CXCL9/MIG” value is reported as 3 out of 3. In addition, under setting [2], the “increases in CXCL14/BRAK” value is listed as 3 out of 3, the “increases in IL-8/CXCL8” value was 2 out of 3 and the “increases in sTRAIL-R3” value is reported as 2 out of 3.
